Data taken from patent US8349553B2, “Jasmonate based assays for identifying compounds that selectively inhibit mitochondrial bound hexokinases” (Ramot at Tel Aviv University Ltd., priority 2007, dated 2013).

Columns and labels:
[1] = system: CT26 cells; assay: Cellular ATP levels (CellTiter-Glo), CT26; type: cell-based, murine; settings: 60 minutes of exposure, indicated concentrations (FIG. 4A)
Experimental: The CellTiter-Glo™ Luminescent Cell Viability Assay (Promega, Madison, Wis., U.S.A.) was employed (Fingrut, 2005). Upon completion of a given experiment, plates were equilibrated to room temperature. CellTiter-Glo™ reagent containing luciferin and luciferase was added to each well and the plates were mixed on an orbital shaker for 2 minutes to induce cell lysis. In the presence of ATP, Mg^2+ and molecular oxygen, mono-oxidation of luciferin is catalyzed by luciferase, generating a luminescence signal. Cells were then incubated for 10 minutes at room temperature to stabilize the luminescence signal. Luminescence was recorded using Kodak digital science—Image station 440 CD. Luminescence is directly proportional to ATP concentration. ATP depletion (% of control) was calculated in the following way: {(luminescence of control cells−luminescence of drug-treated cells)/luminescence of control cells}×100. In order to test the correlation between cellular ATP levels and the release of hexokinase from mitochondrial fraction different cancer cells, namely Molt-4 cells, BCL-1 leukemic cells and B16 melanoma tumors were exposed to various methyl jasmonate concentrations. […] CT26 and Molt-4 cells were then seeded in 24 well plates. CT26 cells were allowed to adhere over night. Cells were exposed to methyl jasmonate (MJ; 3 mM) for 1 hour. Trypan blue exclusion test was performed and cells were counted.

[2] = target: T1, purified rat brain HKI (Rattus norvegicus, UniProt P05708); assay: Surface plasmon resonance analysis of jasmonate-HK interactions; type: binding; settings: analyte injected at varying concentrations (MJ 0.375-6 mM); 25° C.
T1 construct: from tissue; host or cells: rat brain mitochondria
T1 sequence (P05708 whole entry): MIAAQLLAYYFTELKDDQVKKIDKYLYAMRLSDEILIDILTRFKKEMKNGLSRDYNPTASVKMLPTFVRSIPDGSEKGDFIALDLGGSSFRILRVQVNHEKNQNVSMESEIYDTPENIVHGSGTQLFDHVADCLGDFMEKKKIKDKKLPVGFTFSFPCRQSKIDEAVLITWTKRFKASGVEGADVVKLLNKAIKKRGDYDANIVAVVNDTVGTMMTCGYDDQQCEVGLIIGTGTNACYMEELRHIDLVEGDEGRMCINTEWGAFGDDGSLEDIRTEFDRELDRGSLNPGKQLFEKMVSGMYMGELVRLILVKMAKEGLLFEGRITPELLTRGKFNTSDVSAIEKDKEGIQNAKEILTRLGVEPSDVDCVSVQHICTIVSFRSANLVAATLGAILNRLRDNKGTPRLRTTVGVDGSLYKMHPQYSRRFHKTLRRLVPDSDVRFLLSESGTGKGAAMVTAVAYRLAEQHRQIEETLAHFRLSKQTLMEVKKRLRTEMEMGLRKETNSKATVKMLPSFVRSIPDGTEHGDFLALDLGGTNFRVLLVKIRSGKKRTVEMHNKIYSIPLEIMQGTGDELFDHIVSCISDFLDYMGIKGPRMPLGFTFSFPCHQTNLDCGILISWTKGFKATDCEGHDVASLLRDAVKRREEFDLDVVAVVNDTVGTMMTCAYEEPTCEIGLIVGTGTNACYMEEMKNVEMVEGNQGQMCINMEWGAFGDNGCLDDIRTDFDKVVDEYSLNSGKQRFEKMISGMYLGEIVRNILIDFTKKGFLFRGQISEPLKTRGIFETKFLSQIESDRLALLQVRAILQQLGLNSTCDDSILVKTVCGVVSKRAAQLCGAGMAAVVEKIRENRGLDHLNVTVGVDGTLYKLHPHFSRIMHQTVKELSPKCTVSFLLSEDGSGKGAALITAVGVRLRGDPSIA
Experimental: Rat brain HK-I was purified as following, crude brain mitochondria containing tightly bound HK-I were incubated with 1.2 mM glucose-6-phosphate and 0.5 mM K-EDTA to release the enzyme into the soluble fraction. Further purification of HK-I was achieved by affinity chromatography on Cibacron Blue-agarose (Pharmacia). The purified enzyme was concentrated and washed in 0.5 mM K-EDTA, 10 mM glucose, 1 mM dithiothreitol and 10 mM K-Hepes, pH 7.8, using an Amicon device and a 50,000 Da molecular mass cut-off membrane (Spectrum; type C). The concentrated enzyme (up to 1 mg/ml; 30-60 units/mg) was frozen in liquid nitrogen and stored at −80° C. until use (Azoulay-Zohar, 2004).
Surface plasmon resonance (SPR) is an optical biosensor technique that measures molecular binding events at a metal surface by detecting changes in the local refractive index. SPR is the surface-sensitive technique ideal for studying interactions between immobilized biomolecules (ligands) and a solution-phase analyte. The biosensor response is directly proportional to the mass of the bound analyte. The advantage of SPR for investigation of small molecular weight analytes over conventional techniques such as fluorescence or enzyme-linked immunosorbent assay is detection of an analyte being label-free and direct, without the need for labeling of analyte or multistep detection protocols (sandwich assay). […]

[3] = system: mitochondrial fraction of mouse brain; assay: Mitochondrial swelling assay, mouse brain; type: biochemical; settings: 1 mM
Experimental: Freshly isolated mitochondrial fraction was washed with extraction buffer to remove EDTA and resuspended in swelling buffer (Mannitol 220 mM, Sucrose 70 mM, Tris, pH 7.2, 150 mM, KH2PO4, pH 7.2, 0.2 mM; 0.2 mg in 100 μL) freshly supplemented with potassium succinate, pH 7.2, 5 mM. Every component was sodium-free. Optical density was monitored at the wave length of 540 nm for 2-5 minutes before the addition of the examined reagents, e.g. methyl jasmonate, and for additional 20 minutes afterwards.
In order to examine the consistency of the relationship between the ability of methyl jasmonate to detach bound hexokinase and mitochondrial damage, methyl jasmonate was tested in mouse brain in comparison to mouse liver. The comparison was performed due to known differences of mitochondrial hexokinase content between mouse brain vs. its liver. It is well established in the art that brain mitochondrial fraction is rich in bound hexokinase, while liver mitochondrial fraction is essentially devoid of it (Wilson, 1995). […] Mitochondrial fractions were incubated for either 10, 30 or 60 minutes at 37° C. The activity of unbound hexokinase was measured and compared to the activity of spontaneously (control) detached hexokinase. Consequently, the ability of methyl jasmonate to induce swelling in mitochondrial fraction isolated from mouse brain and liver was tested.

[4] = system: CT26 cells transfected with pcDNA3-HKII or pcDNA3
Experimental: Cell death was determined by trypan blue exclusion. […] Alternatively, cytotoxicity was determined using hemacolor staining. Upon completion of a given experiment, cells were stained and the percentage of dead (detached) cells was determined spectrophotometrically.
CT26 cells were transfected with pcDNA3-HKII or pcDNA3, using FuGene HD transfection reagent (Roche, Basel, Switzerland), according to the manufacturer's instruction followed by selection using G418.
To examine the effect of hexokinase over-expression on methyl jasmonate action, CT26 cells were transfected with plasmids, pcDNA3-HKII or pcDNA3, encoding for hexokinase II over-expression and a control plasmid, respectively (Zaid, 2005). Cells were seeded in 96-well plates and allowed to adhere. Cells were exposed to methyl jasmonate for 60 minutes prior to ATP determination (FIG. […] 9B).

[5] = system: hexokinase; assay: Hexokinase activity, agent added directly to the coupled assay mixture; type: biochemical; settings: coupled pyruvate kinase/lactate dehydrogenase assay, 340 nm

`CC/C=C\CC1C(=O)CCC1CC(=O)OC` (centres unmarked) [methyl jasmonate] was tested, and the “cellular ATP level” value [1] was “depletes cellular ATP”, the “binding to immobilized hexokinase (SPR)” value [2] was “bind to purified rat brain HKI in a dose-dependent manner” and the “mitochondrial swelling (optical density at 540 nm)” value [3] was “led to swelling in brain”. The “cytotoxicity (hemacolor), hexokinase II over-expressing vs. control cells” value [4] was “decreased in cells with higher expression of hexokinase II” and the “influence on hexokinase activity when added directly to the assay mixture” value [5] was “neither methyl jasmonate nor jasmonic acid added directly to the assay mixture, influence hexokinase activity”.
